Here are results for 13 compounds from publication PMC8151276, “An Integrated Approach toward NanoBRET Tracers for Analysis of GPCR Ligand Engagement” (Molecules, 2021).

One test concerns the target T1, PTGER1 (Homo sapiens, UniProt P34995).
T1 construct: purchased Promega (in-house HiBiT-GPCR construct library, NanoBRET)
T1 sequence (P34995 1-402): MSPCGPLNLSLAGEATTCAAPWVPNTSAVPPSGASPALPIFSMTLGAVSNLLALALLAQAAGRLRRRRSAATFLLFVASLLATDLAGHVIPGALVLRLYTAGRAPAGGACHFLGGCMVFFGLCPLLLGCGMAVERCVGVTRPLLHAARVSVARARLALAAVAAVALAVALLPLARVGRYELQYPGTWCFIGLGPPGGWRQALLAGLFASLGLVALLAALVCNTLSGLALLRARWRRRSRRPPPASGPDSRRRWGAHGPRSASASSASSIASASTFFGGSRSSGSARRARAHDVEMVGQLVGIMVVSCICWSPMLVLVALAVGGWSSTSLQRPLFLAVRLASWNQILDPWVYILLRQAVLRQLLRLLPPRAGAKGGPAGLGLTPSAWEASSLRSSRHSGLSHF
Kind of test: NanoBRET screen HiBiT-PTGER1 in HEK293. In kind it is binding. As for the experimental part: (§1) Each tracer candidate was screened across the entire library of HiBiT-GPCR constructs using NanoBRET as the detection modality. As depicted in Figure 4A, the specificity of interactions was evaluated through decrease in BRET due to competitive displacement of a bound tracer by excess parental compound. Each tracer was analyzed for binding to each HiBiT-GPCR fusion in the absence and in the presence of competing parental compound. Briefly, HEK293 cells were transfected with HiBiT-GPCR constructs diluted into promoterless DNA to reduce expression and maximize translocation to the cell surface. Each tracer candidate was then screened at concentrations of 1 μM and 0.1 μM across cells expressing these fusions. Cells were treated for 1.5 h with tracer either alone or in the presence of 20 μM competing parental compound (i.e., control). BRET was measured upon addition of purified LgBiT and subsequent complementation with HiBiT genetically fused to a GPCR. The specificity of interactions was assessed through a decrease in BRET signal due to competitive displacement of the bound tracer. To further gauge the robustness of these interactions, the fold response over the control (i.e., BRETtracer/BRETcontrol) was calculated. We chose a 1.5-fold response, which translates to ≥7-fold signal over noise as the minimal threshold required to score an interaction as positive. […]. Below we highlight the screening results obtained for our exemplary fluorescent tracers based on Clozapine, Amitriptyline and AZD1283.
(§2) HiBiT-GPCR DNA constructs were diluted in 10 mM Tris pH 8 to a final concentration of 0.01 μg/μL, arrayed in 96-well plates and stored at −20 °C. For transfection, HEK293 cells were suspended in Opti-MEM (without phenol red) supplemented with 2% fetal bovine serum (Seradigm) and 100 units/mL penicillin–streptomycin (Gibco) at a final concentration of 220,000 cells/mL and dispensed into white 96-well plates at 90 μL/well. Subsequent transfections and screens were carried using an Agilent Bravo Automated Liquid Handling Platform. First, the 96-well HiBiT DNA arrays were diluted 25-fold in Opti-MEM (without serum or phenol red) to a final concentration of 0.0004 μg/μL and 20 μL of the diluted DNAs were transferred into new 96-well plates. Next, promoterless carrier DNA (1 μg/μL) was diluted 25-fold (0.04 μg/μL) and then dispensed into the diluted arrays at 20 μL/well. Following brief mixing, Viafect transfection reagent (Promega) diluted 16-fold into Opti-MEM was dispensed into the plates at 40 μL/well. After mixing by pipetting, plates were incubated for 10 min on the pipetting station deck. The DNA-transfection reagent complexes were then added to plates containing cells. To facilitate the screen, 10 μL of DNA-transfection reagent complexes were added in duplicates to the top 4 and bottom 4 rows, resulting in two identical 48-well arrays per plate. Plates with transfected cells were incubated for 18–20 h at 37 °C/5% CO2. A screen of each tracer across the entire library using two different concentrations requires duplicate plates of transfected cells. Depending on the number of tracers being screened, transfections can be scaled up using the same ratios. The next day, for each tracer, four 20× screening solutions in tracer dilution buffer (Promega) were prepared: two duplicates at final concentration of 20 μM and two duplicates at a final concentration of 2 μM. A competing unmodified compound was added to one of each duplicate at a final concentration of 400 μM. The four resulting solutions were diluted 4-fold in Opti-MEM without serum or phenol red to generate 5× solutions (5 µM and 0.5 µM tracer +/− 100 μM competing compound). To screen the library, a BioTek MultiFlo FX liquid dispenser was used to dispense 22.5 µL of tracer solution to the top 4 rows and 22.5 µL tracer + competing compound solution to the 4 bottom rows. Plates were briefly mixed on an orbital shaker and incubated for 1.5 h at room temperature. […]

Another test deals with T2, LGR4 (Homo sapiens, UniProt Q9BXB1).
T2 construct: purchased Promega (in-house HiBiT-GPCR construct library, NanoBRET)
T2 sequence (Q9BXB1 25-951): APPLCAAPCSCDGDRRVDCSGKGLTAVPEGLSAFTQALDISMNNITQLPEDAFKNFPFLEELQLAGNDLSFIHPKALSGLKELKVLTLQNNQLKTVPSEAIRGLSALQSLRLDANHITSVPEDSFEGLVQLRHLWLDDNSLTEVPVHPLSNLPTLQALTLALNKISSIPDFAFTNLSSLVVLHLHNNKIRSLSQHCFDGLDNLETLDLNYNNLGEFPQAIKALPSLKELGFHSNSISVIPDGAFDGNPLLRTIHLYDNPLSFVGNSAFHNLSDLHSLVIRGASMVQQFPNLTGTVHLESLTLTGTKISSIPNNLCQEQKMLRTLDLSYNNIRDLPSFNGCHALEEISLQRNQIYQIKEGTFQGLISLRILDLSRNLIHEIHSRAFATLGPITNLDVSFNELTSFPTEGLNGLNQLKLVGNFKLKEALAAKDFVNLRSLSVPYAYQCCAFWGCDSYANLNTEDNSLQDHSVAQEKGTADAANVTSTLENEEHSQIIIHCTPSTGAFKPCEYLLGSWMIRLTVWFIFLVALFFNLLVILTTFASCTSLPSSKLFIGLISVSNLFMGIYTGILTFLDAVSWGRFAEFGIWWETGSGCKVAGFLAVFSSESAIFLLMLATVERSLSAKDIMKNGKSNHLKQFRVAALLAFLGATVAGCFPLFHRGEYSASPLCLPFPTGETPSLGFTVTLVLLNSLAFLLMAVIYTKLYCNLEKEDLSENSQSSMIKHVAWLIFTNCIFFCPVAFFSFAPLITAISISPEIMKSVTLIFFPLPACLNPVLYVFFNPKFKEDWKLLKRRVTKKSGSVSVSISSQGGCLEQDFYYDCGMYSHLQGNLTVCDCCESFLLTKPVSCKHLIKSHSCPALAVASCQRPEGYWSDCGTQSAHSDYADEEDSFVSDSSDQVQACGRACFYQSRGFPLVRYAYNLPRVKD
As to the kind of experiment: NanoBRET screen HiBiT-LGR4 in HEK293. It is filed as binding. As for the experimental part:
as §1, §2

With `O=C(CCOCCOCCOCCOCCNC(=O)CCc1ccc2n1[B-](F)(F)[N+]1=C(c3ccc[nH]3)C=CC1=C2)NCCCN1CCN(C2=Nc3ccccc3Oc3ccc(Cl)cc32)CC1` [Loxapine-a-2-NB590], the “NanoBRET Fold Response” value on PTGER1 (PTGER1, tracer 0.1μM) came out at 1.09; on PTGER1 (PTGER1, tracer 1μM), 1.08; on LGR4 (LGR4, tracer 0.1μM), 0.97; at LGR4 (LGR4, tracer 1μM), 1.04.
On to `CCCn1c(=O)c2[nH]c(-c3ccc(OCC(=O)NCCNC(=O)CCOCCNC(=O)c4ccc(CNC(=O)CCc5ccc6n5[B-](F)(F)[N+]5=C(c7ccc[nH]7)C=CC5=C6)cc4)cc3)nc2n(CCC)c1=O` [XAC-3-NB590], for which the “NanoBRET Fold Response” value at PTGER1 (PTGER1, tracer 0.1μM) is reported as 1.06; on PTGER1 (PTGER1, tracer 1μM), 1.16; at LGR4 (LGR4, tracer 0.1μM), 1.02; on LGR4 (LGR4, tracer 1μM), 0.99.
On to `COc1ccccc1N1CCN(CCCCN2C(=O)c3ccc(CNC(=O)CCOCCOCCOCCOCCNC(=O)CCc4ccc5n4[B-](F)(F)[N+]4=C(c6ccc[nH]6)C=CC4=C5)cc3C2=O)CC1` [NAN-190-2-NB590], for which the “NanoBRET Fold Response” value is 0.93 on PTGER1 (PTGER1, tracer 0.1μM); 1.04 at PTGER1 (PTGER1, tracer 1μM); 1.09 at LGR4 (LGR4, tracer 0.1μM); 0.99 on LGR4 (LGR4, tracer 1μM).
As to `O=C(CCc1ccc2n1[B-](F)(F)[N+]1=C(c3ccc[nH]3)C=CC1=C2)NCc1ccc(C(=O)NCCOCCOCCNCC(O)COc2cccc3ccccc23)cc1` (stereo not shown) [Propranolol-3-NB590], the “NanoBRET Fold Response” value turned out to be 1.07 at PTGER1 (PTGER1, 0.1μM); 1.06 at PTGER1 (PTGER1, 1μM); 0.97 at LGR4 (LGR4, 0.1μM); 1.02 at LGR4 (LGR4, 1μM).
For `COc1ccccc1N1CCN(CCCCN2C(=O)c3ccc(CNC(=O)CCOCCNC(=O)c4ccc(CNC(=O)CCc5ccc6n5[B-](F)(F)[N+]5=C(c7ccc[nH]7)C=CC5=C6)cc4)cc3C2=O)CC1` [NAN-190-3-NB590], the “NanoBRET Fold Response” value at PTGER1 (PTGER1, tracer 0.1μM) is listed as 0.89; at PTGER1 (PTGER1, tracer 1μM), 1.11; on LGR4 (LGR4, tracer 0.1μM), 0.88; at LGR4 (LGR4, tracer 1μM) it was 0.95.
Take `O=C(CCc1ccc2n1[B-](F)(F)[N+]1=C(c3ccc[nH]3)C=CC1=C2)NCc1ccc(C(=O)NCCOCCC(=O)N[C@@H]2CC[C@@]3(O)[C@H]4Cc5ccc(O)c6c5[C@@]3(CCN4CC3CC3)[C@H]2O6)cc1` [Naltrexone-3-NB590]: the “NanoBRET Fold Response” value on PTGER1 (PTGER1, tracer 0.1μM) stood at 1.01; at PTGER1 (PTGER1, tracer 1μM) it was 1.02; on LGR4 (LGR4, tracer 0.1μM) it was 0.94; at LGR4 (LGR4, tracer 1μM) it was 0.87.
Turning to `CCOC(=O)c1cc(C#N)c(N2CCC(C(=O)NS(=O)(=O)Cc3ccccc3/C=C/C(=O)NCCNC(=O)CCc3ccc4n3[B-](F)(F)[N+]3=C(c5ccc[nH]5)C=CC3=C4)CC2)nc1C` [AZD1283-1-NB590], the “NanoBRET Fold Response” value at PTGER1 (PTGER1, 0.1μM) is 1.17; on PTGER1 (PTGER1, 1μM), 1.14; at LGR4 (LGR4, 0.1μM), 1.01; on LGR4 (LGR4, 1μM) it was 0.97.
Turning to `COc1ccc2[nH]c(-c3ccc(CNC(=O)CCOCCOCCOCCOCCNC(=O)CCc4ccc5n4[B-](F)(F)[N+]4=C(c6ccc[nH]6)C=CC4=C5)cc3)c(CCNC(C)=O)c2n1` [AzomelatoninICO9-2-NB590], the “NanoBRET Fold Response” value is 0.77 on PTGER1 (0.1μM tracer), 0.95 on PTGER1 (1μM tracer), 1.10 on LGR4 (0.1μM tracer) and 1.00 on LGR4 (1μM tracer).
Take `CC(C)N(CC[C@H](c1ccccc1)c1cc(CCNC(=O)CCOCCOCCOCCOCCNC(=O)CCc2ccc3n2[B-](F)(F)[N+]2=C(c4ccc[nH]4)C=CC2=C3)ccc1O)C(C)C` [Tolterodine-2-NB590]: the “NanoBRET Fold Response” value was found to be 1.00 at PTGER1 (PTGER1, tracer 0.1μM); 1.23 on PTGER1 (PTGER1, tracer 1μM); 1.12 on LGR4 (LGR4, tracer 0.1μM); 1.24 on LGR4 (LGR4, tracer 1μM).
Take `CN1CCN(C2=Nc3cc(Cl)ccc3N(CC(=O)NCCOCCOCCOCCOCCNC(=O)CCc3ccc4n3[B-](F)(F)[N+]3=C(c5ccc[nH]5)C=CC3=C4)c3ccccc32)CC1` [Clozapine-c-2-NB590]: the “NanoBRET Fold Response” value at PTGER1 (PTGER1, 0.1μM tracer) worked out at 1.00; at PTGER1 (PTGER1, 1μM tracer) it was 0.92; on LGR4 (LGR4, 0.1μM tracer), 0.96; on LGR4 (LGR4, 1μM tracer), 1.03.
As to `N#CN=C(NCCCOc1cccc(CN2CCCCC2)c1)NCCNC(=O)CCOCCOCCOCCOCCNC(=O)CCc1ccc2n1[B-](F)(F)[N+]1=C(c3ccc[nH]3)C=CC1=C2` [Aminopotentidine-2-NB590], the “NanoBRET Fold Response” value on PTGER1 (PTGER1, tracer 0.1μM) is 0.97; at PTGER1 (PTGER1, tracer 1μM), 0.95; on LGR4 (LGR4, tracer 0.1μM) it was 1.01; on LGR4 (LGR4, tracer 1μM), 1.02.
With `COc1ccc2c(n1)c(CCNC(C)=O)cn2CCNC(=O)CCc1ccc2n1[B-](F)(F)[N+]1=C(c3ccc[nH]3)C=CC1=C2` [Azamelatonin-1-NB590], the “NanoBRET Fold Response” value came out at 1.20 at PTGER1 (0.1μM tracer), 0.95 on PTGER1 (1μM tracer), 1.20 at LGR4 (0.1μM tracer) and 0.99 on LGR4 (1μM tracer).
Consider `CC(C)N(CC[C@H](c1ccccc1)c1cc(CCNC(=O)c2ccc(CNC(=O)CCc3ccc4n3[B-](F)(F)[N+]3=C(c5ccc[nH]5)C=CC3=C4)cc2)ccc1O)C(C)C` [Tolterodine-BZ-NB590], for which the “NanoBRET Fold Response” value at PTGER1 (PTGER1, tracer 0.1μM) came out at 1.03; at PTGER1 (PTGER1, tracer 1μM), 1.03; on LGR4 (LGR4, tracer 0.1μM), 1.02; on LGR4 (LGR4, tracer 1μM), 1.02.
